Source: PubChem BioAssay (NCI)
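Assay format: 96-well plates, 48-hour exposure. TGI: concentration producing complete growth inhibition.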

Key:
Assay in all cases: inhibition of tumour cell growth, NCI panel, 48 h
NCI-H522 lung = test system: NCI-H522 lung
HCT-15 colon = test system: HCT-15 colon
EKVX NSCLC = test system: EKVX NSCLC
HCC-2998 colon = test system: HCC-2998 colon
SNB-75 CNS = test system: SNB-75 CNS
SNB-19 CNS = test system: SNB-19 CNS
A549 NSCLC = test system: A549 NSCLC
RPMI-8226 leukemia = test system: RPMI-8226 leukemia
CAKI-1 renal = test system: CAKI-1 renal
NCI-H226 lung = test system: NCI-H226 lung

Row | Compound | TGI (NCI-H522 lung) [µM] | TGI (HCT-15 colon) [µM] | TGI (EKVX NSCLC) [µM] | TGI (HCC-2998 colon) [µM] | TGI (SNB-75 CNS) [µM] | TGI (SNB-19 CNS) [µM] | TGI (A549 NSCLC) [µM] | TGI (RPMI-8226 leukemia) [µM] | TGI (CAKI-1 renal) [µM] | TGI (NCI-H226 lung) [µM]
1 | COC(=O)C(C)(N=Cc1ccccc1)c1ccccc1 (centres undefined) | > 100 | > 100 | > 100 | > 100 | > 100 | > 100 | > 100 | > 100 | > 100 | > 100
2 | ClC(Cl)(Cl)C1=N[C@H]2[C@H](Br)[C@@H]3O[C@@H](c4ccccc4)[C@H](c4ccccc4)O[C@@H]3[C@H]2O1 | 26.7 | 67.3 | 50.3 | 28.5 | 44 | 63.9 | 49.2 | 41 | 32.6 | 35.5
3 | CCOC(=O)N1CCN(c2ccc3c(C)cc(C)nc3n2)CC1 | > 100 | > 100 | > 100 | > 100 | > 100 | > 100 | > 100 | > 100 | > 100 | > 100
4 | O=C1Sc2ccc(Br)cc2C(=O)Sc2ccccc21 | 22.1 | 46.5 | 22.2 | 29.6 | 26.1 | 29.5 | > 71.1 | 16.7 | 29.4 | 44.5
5 | COc1ccccc1C1SCC(=O)N1c1ccc(-c2ccc(-n3c(-c4ccccc4)nc4ccccc4c3=O)cc2)cc1 (centres undefined) | > 100 | > 100 | > 100 | > 100 | > 100 | > 100 | > 100 | > 100 | > 100 | > 100
6 | CC(C)[C@@H]1CC[C@@H](C)C[C@H]1OC(=O)/C=C1/C2C=CC(O2)C1C(=O)O[C@@H]1C[C@H](C)CC[C@H]1C(C)C (some centres undefined) | > 100 | > 100 | > 100 | > 100 | > 100 | > 100 | > 100 | > 100 | > 100 | > 100
7 | FC(F)(F)c1ccccc1N1CCN(c2nc(-c3cccs3)nc3ccc(Br)cc23)CC1 | > 100 | > 100 | > 100 | 25 | > 100 | > 100 | > 100 | 34.5 | 94.5 | > 100
8 | O=C1C(NCCc2ccc(O)c(O)c2)=CC(=O)c2ncccc21 | 7.31 | 55.7 | 52 | 27.8 | 29.4 | 45.8 | 35.7 | > 70 | 21.5 | 30.5
9 | Cc1cc(O)c2c(c1O)C(=O)C13C(=C2O)C(=O)C2C(O)C1C1C(O)C3C(=O)C3=C(O)c4c(O)cc(C)c(O)c4C(=O)C321 (centres undefined) | 0.543 | 0.182 | 1.84 | 0.329 | 0.841 |  | 1.08 | < 0.0312 | 0.696 | 0.879
10 | O=C(Nc1nc2ccccc2n1Cc1ccccc1)NC12CC3CC(CC(C3)C1)C2 | > 100 | > 100 | > 100 | > 100 | 49.8 | > 100 | > 100 | > 100 | > 100 | > 100
11 | [Se]=P(c1ccccc1)(c1ccccc1)c1ccc(C(c2ccccc2)=P(c2ccccc2)(c2ccccc2)c2ccccc2)cc1 | 1.7 | 18.8 | 15.8 | 11.6 | 3.49 | 16 | 13 | 8.05 | 8.5 | 11.5
12 | O=C(CN1CCN(Cc2ccccc2)CC1)N1CCCn2c1nc1ccccc1c2=O | > 100 | > 100 | > 100 | > 100 | > 100 | > 100 | > 100 | > 100 | > 100 | > 100
13 | COc1ccc(S(=O)(=O)O)cc1-n1nc(C(=O)Nc2ccccc2)n[n+]1-c1cc(S(=O)(=O)[O-])ccc1OC | > 100 | > 100 | > 100 | > 100 | > 100 | > 100 | > 100 | > 100 | > 100 | > 100
14 | COC(=O)C(CCc1ccccc1I)C1=CCC2(CC1)OCCO2 (centres undefined) | 68.8 | > 100 | > 100 | > 100 | > 100 | > 100 | > 100 | > 100 | > 100 | > 100
15 | O=C1CSC(/C(=C\c2ccc(Cl)cc2)c2nc3ccccc3[nH]2)=N1 | 12.6 | 52.4 | 32.2 | 17.7 | 28.8 | 33.9 | 16.4 | > 100 | 21.5 | 18.2
16 | CCCCc1c(C(=O)OC(C)(C)C)cc(C#Cc2cc(C(=O)OC(C)(C)C)c(CCCC)c(C(=O)OC(C)(C)C)c2)cc1C(=O)OC(C)(C)C | > 100 | > 100 | > 100 | > 100 | > 100 | > 100 | > 100 | > 100 | > 100 | > 100
